The values that follow come from ChEMBL document CHEMBL4270607, “Identification of crizotinib derivatives as potent SHIP2 inhibitors for the treatment of Alzheimer's disease” (Eur J Med Chem, 2018).

The term AUC(0-inf) denotes the area under the concentration-time curve extrapolated to infinity. A high value points to more exposure. Broadly, the MRT inf is the average time that molecules of a dose stay in the body. One may read the bioavailability as the share of a dose that reaches the circulation, judged against a reference dose that is usually intravenous. Low values mean little systemic uptake, high ones much systemic uptake. By Cmax is commonly meant the highest concentration seen after dosing. Usually MRT last stands for a mean duration of stay, worked out from the concentration-time curve. What is called Tmax is the time from dosing to the highest level.

Holding throughout (type): ADME, organism-based
A short description of data set [1]: AUC (0 to infinity) in Sprague-Dawley rat at 10 mg/kg, po administered as single dose by LC-MS/MS analysis. Also noted: dose 10 mg/kg, route oral, time infinity. The note with it: in vivo.
A short description of data set [2]: MRT (0 to infinity) in Sprague-Dawley rat at 10 mg/kg, po administered as single dose by LC-MS/MS analysis. To be noted: in vivo.
Data set [3] can be described thus: Oral bioavailability in Sprague-Dawley rat at 2 mg/kg, iv administered as single dose by LC-MS/MS analysis. To be noted: in vivo.
A short description of data set [4]: Drug uptake in brain of Sprague-Dawley rat at 5 mg/kg, iv measured at 5 hrs by LC-MS/MS analysis. The note with it: read-out: Drug uptake.
Data set [5] is described as follows: Cmax in Sprague-Dawley rat at 10 mg/kg, po administered as single dose by LC-MS/MS analysis. To be noted: in vivo. Also noted: dose 10 mg/kg, route oral.
Data set [6] in a line: Drug uptake in brain of Sprague-Dawley rat at 5 mg/kg, iv measured at 1 hr by LC-MS/MS analysis. To be noted: read-out: Drug uptake.
Data set [7] can be described thus: MRT (0 to t) in Sprague-Dawley rat at 10 mg/kg, po administered as single dose by LC-MS/MS analysis. To be noted: in vivo.
A short description of data set [8]: Tmax in Sprague-Dawley rat at 10 mg/kg, po administered as single dose by LC-MS/MS analysis. To be noted: in vivo.
Data set [9] in a line: Cmax in Sprague-Dawley rat at 2 mg/kg, iv administered as single dose by LC-MS/MS analysis. Also noted: dose 2 mg/kg, route intravenous. To be noted: in vivo.
Data set [10] in a line: Drug uptake in blood of Sprague-Dawley rat at 5 mg/kg, iv measured at 1 hr by LC-MS/MS analysis. To be noted: read-out: Drug uptake.

In turn, `C[C@@H](Oc1cncc(-c2cnc(N)nc2)c1)c1c(Cl)ccc(F)c1Cl` came in with a total exposure AUC(0-inf) in data set [1] of 2880 ng·h/mL. The same compound showed a mean residence time (MRT inf) in [2] of 3.19 h. The bioavailability in [3] was determined as 33.3%. Moreover, the concentration at 5 h in data set [4] was found to be 194 ng/mL. Besides, the Cmax in [5] worked out at 636 ng/mL; in data set [9], 1480 ng/mL. Also, the concentration at 1 h stood at 2730 ng/mL in data set [6] and 1180 ng/mL in data set [10]. Besides, in data set [7], the MRT last was 3.06 h. Further, the Tmax in data set [8] turned out to be 1.75 h.
